Measurements published in patent US20220153732A1, “PROTEIN SECRETION INHIBITORS” (KEZAR LIFE SCIENCES, priority 2019, published 2022).
Read-outs that look alike come from different tables or passages of the source.

Legend:
Format in all cases: cell-based
[1] = tested on: PD1-ss+10aa/Gaussia Luciferase; assay: Dox-Induced PD1-ss-Gluc Assay; details: 293FRT/TO cells, read-out: 24 hr Dox Inducible PD1ssGluc 293FRT/TO: Mean IC50
Method in brief: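 Compounds, diluted in DMSO/media with doxycycline, were added to cells plated a day earlier and kept at 37° C under 5% CO2. The cells stably express a Gaussia luciferase construct fused to PD1-ss+10aa, induced via the T-REx system. Unassigned stereochemistry means mixture data.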

[2] = tested on: IL-2-FL/Gaussia Luciferase; assay: Dox Induced IL2-FL-Gluc Assay; details: 293FRT/TO cells, read-out: 24 hr Dox Inducible IL2FLGIuc 293FRT/TO: Mean IC50
Method in brief: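 Compounds were added together with doxycycline in DMSO/media and incubated at 37° C., 5% CO2. The cells were a stably selected line carrying IL-2-FL/Gaussia luciferase under T-REx inducible control. Structures drawn without stereochemistry were tested as stereoisomer mixtures.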

[3] = tested on: HER3-ss+4aa/Gaussia Luciferase; assay: Dox-Induced Her3-ss-Gluc Assay; details: 293FRT/TO cells, read-out: 24 hr Dox Inducible Her3(ss + 4)Gluc 293FRT/TO: Mean IC50
Method in brief: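 Compounds, diluted in DMSO/media containing doxycycline, were incubated at 37° C., 5% CO2 with cells seeded one day earlier. The cells stably express HER3-ss+4aa/Gaussia luciferase under T-REx control. Where no stereochemistry is shown, data refer to the mixture of stereoisomers.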

[4] = tested on: human multiple myeloma cell line NCI-H929; assay: H929 Cell Viability Assay; details: 48 hr, NCI-H929 cells, Celltiter-Glo, read-out: 48 hr H929 Viability Celltiter-Glo: Mean EC50
Experimental: Plates were incubated at 37° C., 5% CO2 for 48 hours. After 48 hours, Celltiter-Glo® (Promega) was added to each well and luciferase signal was quantified using Tecan Infinite M1000 Pro for cell viability determination.
For chemical structures that include one or more stereoisomers, but are illustrated without indicating stereochemistry, the assay data refers to a mixture of stereoisomers.

[5] = tested on: TNFα-FL/Gaussia Luciferase; assay: Dox Induced TNFα-FL-Gluc Assay; details: 293FRT/TO cells, read-out: 24 hr Dox Inducible TNFaFLGluc 293FRT/TO: Mean IC50
Method in brief: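 Compounds were added in doxycycline-containing DMSO/media to cells plated the previous day and incubated at 37° C under 5% CO2. These cells stably express a TNFα-FL/Gaussia luciferase cDNA whose expression is under T-REx (Dox-inducible) control, selected with Hygromycin and Blasticidin.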

[6] = tested on: human multiple myeloma cell line U266B1; assay: U266 Cell Viability Assay; details: U-266, 48 hr, U266B1 cells, Celltiter-Glo, read-out: 48 hr U266 Viability Celltiter-Glo: Mean EC50
Method in brief: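 Viability measured by CellTiter-Glo luciferase signal after 48 h compound exposure (37 °C, 5% CO2) of U266B1 cells in 384-well format. Where stereochemistry is not shown, data refer to the stereoisomer mixture.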

[7] = 24 hr doxycycline induction, Gaussia luciferase signal

SMILES	IC50 ([1]; 24 hr, doxycycline-induced) [µM]	IC50 ([2]; 24 hr, doxycycline-induced) [µM]	IC50 ([3]; 24 hr, doxycycline-induced) [µM]	EC50 [4] [µM]	IC50 ([5]; 24 hr, doxycycline-induced) [µM]	EC50 [6] [µM]	IC50 [1, 7] [µM]	IC50 [2, 7] [µM]	IC50 [3, 7] [µM]	IC50 [5, 7] [µM]
O=C(Nc1nc([C@H]2CCCN2c2ccc3c(c2)OCO3)cs1)c1cccn1Cc1ccncc1 [Compound A359]	0.011	0.015	0.013	0.382	0.083	> 25	–	–	–	–
CC(C)OC(C)(C)c1csc(NC(=O)c2ccn(Cc3ccncc3)n2)n1 [Compound A100, N-(4-(2-isopropoxypropan-2-yl)thiazol-2-yl)-1-(pyridin-4-ylmethyl)-1H-pyrazole-3-carboxamide]	–	–	–	24.6	–	> 25	24.6	> 25	> 25	> 25
CC1(c2csc(NC(=O)c3cccn3Cc3ccncc3)n2)CC1 [Compound A67, N-(4-(1-methylcyclopropyl)thiazol-2-yl)-1-(pyridin-4-ylmethyl)-1H-pyrrole-2-carboxamide]	–	–	–	> 25	–	> 25	1.88	2.08	3.24	> 25
CCc1cnc(NC(=O)c2cccn2Cc2ccncc2)s1 [Compound A65]	–	–	–	> 25	–	> 25	1.79	11.2	4.13	> 25
CC(C)OC(C)(C)c1csc(NC(=O)c2cc(C(N)=O)cn2Cc2ccncc2)n1 [Compound A109, N2-(4-(2-isopropoxypropan-2-yl)thiazol-2-yl)-1-(pyridin-4-ylmethyl)-1H-pyrrole-2,4-dicarboxamide]	–	–	–	19.5	–	> 25	> 25	> 25	> 25	> 25
CCc1nc(NC(=O)c2cccn2Cc2cccnc2)sc1C [Compound A131, N-(4-ethyl-5-methylthiazol-2-yl)-1-(pyridin-3-ylmethyl)-1H-pyrrole-2-carboxamide]	–	–	–	> 25	–	> 25	> 25	> 25	> 25	> 25
O=C(Nc1nc(CCc2ccc(Cl)cc2)cs1)c1cccn1Cc1ccncc1 [Compound A180]	–	–	–	7.18	–	6.46	0.057	0.281	0.156	0.736
CC(C)OC(C)(C)c1csc(NC(=O)c2cncn2Cc2ccncc2)n1 [Compound A104, N-(4-(2-isopropoxypropan-2-yl)thiazol-2-yl)-1-(pyridin-4-ylmethyl)-1H-imidazole-5-carboxamide]	–	–	–	> 25	–	> 25	> 25	> 25	> 25	> 25
O=C(Nc1nc(/C=C/c2ccc(OC(F)(F)F)cn2)cs1)c1cccn1Cc1ccncc1 [Compound A327]	0.016	0.999	0.469	15.1	4.49	> 25	–	–	–	–
CC(C)OC(C)(C)c1csc(NC(=O)c2ccccc2Cc2ccncc2)n1 [Compound A280, N-(4-(2-isopropoxypropan-2-yl)thiazol-2-yl)-2-(pyridin-4-ylmethyl)benzamide]	–	–	–	> 25	–	> 25	12.7	> 25	> 25	> 25
O=C(Nc1nc([C@@H]2CCC[C@@H](c3ccccc3)C2)cs1)c1cccn1Cc1ccncc1 [Compound A271]	–	–	–	15.5	–	> 25	0.316	0.951	0.912	2.87
O=C(Nc1nc(/C=C/C2CCCCC2)cs1)c1cccn1Cc1ccncc1 [Compound A152, N-(4-(2-cyclohexylvinyl)thiazol-2-yl)-1-(pyridin-4-ylmethyl)-1H-pyrrole-2-carboxamide]	–	–	–	11	–	> 25	0.085	0.854	0.28	1.58
CC(C)OC1(c2csc(NC(=O)c3cccn3Cc3ccncc3)n2)CC1 [Compound A123]	–	–	–	> 25	–	> 25	> 25	> 25	> 25	> 25
CC(C)OC(C)(C)c1csc(NC(=O)c2cccn2Cc2ccncc2)n1 [Compound A16, N-(4-(2-isopropoxypropan-2-yl)thiazol-2-yl)-1-(pyridin-4-ylmethyl)-1H-pyrrole-2-carboxamide]	–	–	–	> 23.9	–	> 25	0.185	0.266	0.377	5.01
CC(OC(C)(C)c1csc(NC(=O)c2cccn2Cc2ccncc2)n1)c1cccc(Cl)c1 (stereo not drawn) [Compound A2, N-(4-(2-(1-(3-chlorophenyl)ethoxy)propan-2-yl)thiazol-2-yl)-1-(pyridin-4-ylmethyl)-1H-pyrrole-2-carboxamide]	–	–	–	1.61	–	22.3	0.029	0.105	0.062	0.391
CC(C)OC(C)(C)c1csc(NC(=O)c2cccn2CCCCc2ccncc2)n1 [Compound A44, N-(4-(2-isopropoxypropan-2-yl)thiazol-2-yl)-1-(4-(pyridin-4-yl)butyl)-1H-pyrrole-2-carboxamide]	–	–	–	> 24.8	–	> 25	0.963	0.837	1.48	13.3
O=C(Nc1nc([C@H]2CCC[C@@H]2c2ccccc2)cs1)c1cccn1Cc1ccncc1 [Compound A300, N-(4-((1S,2S)-2-phenylcyclopentyl)thiazol-2-yl)-1-(pyridin-4-ylmethyl)-1H-pyrrole-2-carboxamide]	0.328	0.45	0.589	10.5	2.42	> 25	–	–	–	–
O=C(Nc1nc(/C=C/c2ccccc2)cs1)c1cccn1Cc1ccncc1 [Compound A14, 1-(pyridin-4-ylmethyl)-N-(4-styrylthiazol-2-yl)-1H-pyrrole-2-carboxamide]	–	–	–	> 25	–	> 25	0.153	1.05	0.568	5.11
COCc1cnc(NC(=O)c2cccn2Cc2ccncc2)s1 [Compound A94]	–	–	–	> 25	–	> 25	14.6	> 25	> 25	> 25
O=C(Nc1nc(C(F)(F)F)cs1)c1cccn1Cc1ccncc1 [Compound A19, 1-(pyridin-4-ylmethyl)-N-(4-(trifluoromethyl)thiazol-2-yl)-1H-pyrrole-2-carboxamide]	–	–	–	> 25	–	> 25	0.246	0.529	0.492	8.54
NC(=O)Cc1csc(NC(=O)c2cccn2Cc2ccncc2)n1 [Compound B18]	> 25	> 25	> 25	> 25	> 25	> 25	–	–	–	–
CC(C)(CCc1ccccc1)c1csc(NC(=O)c2cccn2Cc2ccncc2)n1 [Compound A225, N-(4-(2-methyl-4-phenylbutan-2-yl)thiazol-2-yl)-1-(pyridin-4-ylmethyl)-1H-pyrrole-2-carboxamide]	–	–	–	8.89	–	> 25	0.324	0.486	0.558	3.84
